Test [1] has as its target T1, TcFPPS (Trypanosoma cruzi farnesyl diphosphate synthase) (Trypanosoma cruzi, UniProt Q8WS26).
T1 sequence (Q8WS26 64-425): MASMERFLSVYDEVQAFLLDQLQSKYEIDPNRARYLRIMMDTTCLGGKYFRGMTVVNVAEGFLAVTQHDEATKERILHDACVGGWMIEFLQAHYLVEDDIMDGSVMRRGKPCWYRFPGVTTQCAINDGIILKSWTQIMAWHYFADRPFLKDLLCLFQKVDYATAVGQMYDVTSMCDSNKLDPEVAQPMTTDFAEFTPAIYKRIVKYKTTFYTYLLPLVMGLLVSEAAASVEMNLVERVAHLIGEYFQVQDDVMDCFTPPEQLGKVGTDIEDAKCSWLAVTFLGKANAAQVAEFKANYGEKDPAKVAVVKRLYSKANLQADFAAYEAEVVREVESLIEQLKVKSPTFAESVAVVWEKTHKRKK
Kind of test: Isothermal titration calorimetry of bisphosphonate binding to TcFPPS. The note with it: ITC, 28 °C; for ΔG / ΔH / ΔS: single binding site per monomer. In general terms: In ITC the heat of successive injections is recorded.

In a further test the test system is TcFPPS. To be noted: TcFPPS enzymatic activity; IC50 were calculated before; cited from earlier work.
The next test relates to T. cruzi. To be noted: in vivo assays; cited from earlier work.

Consider six compounds from PMC4710095 (Journal of medicinal chemistry, 2012).

Broadly, the IC50 is the concentration that gives 50% inhibition. As for `CCCNCC(P(=O)(O)O)P(=O)(O)O` [Compound 10, [2-(n-propylamino)ethane-1,1-diyl]bisphosphonic acid], in test [1], the ΔG is -10.43 kcal/mol, the ΔH is given as 6.35 ± 0.07 kcal/mol and the ΔS came to 56.1 cal/mol/K. In the test on TcFPPS, the concentration for half-maximal inhibition (IC50) was 38 nM.
Consider `CCCCCNCC(P(=O)(O)O)P(=O)(O)O` [Compound 11, [2-(n-pentylamino)ethane-1,1-diyl]bisphosphonic acid], for which, in test [1], the ΔG is -8.15 kcal/mol, the ΔH amounted to 5.22 ± 0.11 kcal/mol and the ΔS was determined as 44.7 cal/mol/K. Moreover, the half-maximal inhibitory concentration (IC50) with TcFPPS was 1840 nM.
For `CCCCCCNCC(P(=O)(O)O)P(=O)(O)O` [Compound 12, [2-(n-hexylamino)ethane-1,1-diyl]bisphosphonic acid], in test [1], the ΔG is -8.72 kcal/mol, the ΔH was 7.87 ± 0.11 kcal/mol and the ΔS amounted to 55.4 cal/mol/K. Besides, in test [1] (compared with the other n-alkyl inhibitors), the “unfavorable binding enthalpy, excess over the other inhibitors” value was in the range of 1.5 to 2.0 kcal/mol. The IC50 in the test on TcFPPS is 490 nM.
Turning to `CCCCCCCNCC(P(=O)(O)O)P(=O)(O)O` [Compound 13, [2-(n-heptylamino)ethane-1,1-diyl]bisphosphonic acid], in test [1], the ΔG is -9.88 kcal/mol, the ΔH amounted to 5.65 ± 0.09 kcal/mol and the ΔS stood at 51.9 cal/mol/K. In addition, in test [1] (values calculated using 2-site model (two different sites per dimer), first site), the “ΔH, 2-site model, first value” was 6.39 ± 0.36 kcal/mol. In addition, the “ΔH, 2-site model, second value” in test [1] (values calculated using 2-site model (two different sites per dimer), second site) is 4.62 ± 0.44 kcal/mol. In addition, the IC50 in the test on TcFPPS is 58 nM.
Turning to `O=P(O)(O)C(CNC1CCCCC1)P(=O)(O)O` [Compound 14, [2-(cyclohexylamino)ethane-1,1-diyl]bisphosphonic acid], the IC50 in the test with TcFPPS is 13 nM.
Take `O=P(O)(O)C(O)(Cc1cccnc1)P(=O)(O)O` [risedronate]: the “survival of T. cruzi-infected mice” value with T. cruzi is “significantly increase survival”.
